Test results: PubChem BioAssay AID256 (DTP/NCI, 2004)
Several values for one entry are separate records, joined by “and”; a condition that tells them apart may be missing. Equal values may be shown once. Inconclusive results and toxic doses are left out. How the source made its calls: active means survival T/C of 150% or more; inactive means T/C below 125% in these data.

Test system: CD2F1 mice, L1210 leukemia ip, survival T/C
Assay: NCI In Vivo Anticancer Drug Screen. Data for tumor model L1210 Leukemia (intraperitoneal) in CD2F1 (CDF1) mice
Conditions: higher = longer survival
How it was run: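 Each value reflects a quotient of treated over vehicle control outcomes in mice with a transplanted tumor.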

[1] = endpoint: mean survival time, dose: 100.0 mg/kg/injection, schedule: Q01DX001 (ip), vehicle: saline with Tween-80
[2] = endpoint: mean survival time, dose: 200.0 mg/kg/injection, schedule: Q01DX001 (ip), vehicle: saline with Tween-80
[3] = endpoint: mean survival time, dose: 400.0 mg/kg/injection, schedule: Q01DX001 (ip), vehicle: saline with Tween-80
[4] = endpoint: mean survival time, dose: 50.0 mg/kg/injection, schedule: Q01DX001 (ip), vehicle: saline
[5] = endpoint: mean survival time, dose: 100.0 mg/kg/injection, schedule: Q01DX001 (ip), vehicle: saline
[6] = endpoint: mean survival time, dose: 200.0 mg/kg/injection, schedule: Q01DX001 (ip), vehicle: saline
[7] = endpoint: mean survival time, dose: 50.0 mg/kg/injection, schedule: Q01DX009 (ip), vehicle: saline
[8] = endpoint: mean survival time, dose: 100.0 mg/kg/injection, schedule: Q01DX009 (ip), vehicle: saline with Tween-80
[9] = endpoint: mean survival time, dose: 100.0 mg/kg/injection, schedule: Q04DX003 (ip), vehicle: saline with Tween-80
[10] = endpoint: mean survival time, dose: 200.0 mg/kg/injection, schedule: Q04DX003 (ip), vehicle: saline with Tween-80
[11] = endpoint: mean survival time, dose: 400.0 mg/kg/injection, schedule: Q04DX003 (ip), vehicle: saline with Tween-80
[12] = endpoint: mean survival time, dose: 25.0 mg/kg/injection, schedule: Q04DX002 (ip), vehicle: saline with Tween-80

Measured: T/C

CCCCOC(=O)c1ccc(OC(=O)Nc2ccc(C)cc2[N+](=O)[O-])cc1
inactive: endpoint: mean survival time, dose: 25.0 mg/kg/injection, schedule: Q01DX009 (ip), vehicle: saline + alcohol 102 % of control | endpoint: mean survival time, dose: 50.0 mg/kg/injection, schedule: Q01DX001 (ip), vehicle: saline with Tween-80 109 % of control | endpoint: mean survival time, dose: 50.0 mg/kg/injection, schedule: Q01DX009 (ip), vehicle: saline + alcohol 108 % of control | [1] 113 % of control | endpoint: mean survival time, dose: 100.0 mg/kg/injection, schedule: Q01DX009 (ip), vehicle: saline + alcohol 103 % of control | [2] 109 % of control | endpoint: mean survival time, dose: 200.0 mg/kg/injection, schedule: Q01DX009 (ip), vehicle: saline + alcohol 101 % of control | [3] 107 % of control

CSc1nnc(SC)c(SC)n1
inactive: endpoint: mean survival time, dose: 75.0 mg/kg/injection, schedule: Q01DX001 (ip), vehicle: saline 96 % of control

Nc1ncc[nH]1
inactive: [4] 110 % of control | [5] 108 % of control | [6] 110 % of control | endpoint: mean survival time, dose: 400.0 mg/kg/injection, schedule: Q01DX001 (ip), vehicle: saline 108 % of control

CN(C)c1nc2c(N)ncnc2n1C1OC(CO)C(O)C1O (centres undefined)
inactive: endpoint: mean survival time, dose: 10.0 mg/kg/injection, schedule: Q04DX002 (ip), vehicle: saline with Tween-80 103 % of control | endpoint: mean survival time, dose: 20.0 mg/kg/injection, schedule: Q04DX002 (ip), vehicle: saline with Tween-80 98 % of control | endpoint: mean survival time, dose: 40.0 mg/kg/injection, schedule: Q04DX002 (ip), vehicle: saline with Tween-80 98 % of control | [4] 100 % of control | [7] 123 % of control | [5] 106 % of control | endpoint: mean survival time, dose: 100.0 mg/kg/injection, schedule: Q01DX009 (ip), vehicle: saline 100 % of control | [6] 102 % of control

CC(C)NCC(O)COc1ccc(O)c(O)c1 (centres undefined)
inactive: endpoint: median survival time, dose: 12.5 mg/kg/injection, schedule: Q01DX009 (ip), vehicle: saline 101 % of control | endpoint: median survival time, dose: 25.0 mg/kg/injection, schedule: Q01DX009 (ip), vehicle: saline 97 % of control and 101 % of control | endpoint: median survival time, dose: 50.0 mg/kg/injection, schedule: Q01DX009 (ip), vehicle: saline 98 % of control and 107 % of control | endpoint: median survival time, dose: 100.0 mg/kg/injection, schedule: Q01DX009 (ip), vehicle: saline 107 % of control and 112 % of control | endpoint: median survival time, dose: 200.0 mg/kg/injection, schedule: Q01DX009 (ip), vehicle: saline 90 % of control

CCCCCCCCCCCCN1CCCC(O)C1 (centres undefined)
inactive: endpoint: mean survival time, dose: 25.0 mg/kg/injection, schedule: Q01DX009 (ip), vehicle: saline with Tween-80 116 % of control | endpoint: mean survival time, dose: 50.0 mg/kg/injection, schedule: Q01DX009 (ip), vehicle: saline with Tween-80 92 % of control and 105 % of control | [8] 105 % of control and 111 % of control

Cc1nc(-c2ccccc2)nc2c1CCO2
inactive: [9] 102 % of control | [10] 100 % of control | [11] 105 % of control

CCCCCCCCCOc1ccc(Cl)cc1
inactive: [12] 95 % of control | endpoint: mean survival time, dose: 50.0 mg/kg/injection, schedule: Q04DX002 (ip), vehicle: saline with Tween-80 100 % of control | endpoint: mean survival time, dose: 100.0 mg/kg/injection, schedule: Q04DX002 (ip), vehicle: saline with Tween-80 90 % of control and 95 % of control | endpoint: mean survival time, dose: 400.0 mg/kg/injection, schedule: Q04DX002 (ip), vehicle: saline with Tween-80 93 % of control

CCCCCCCCCCCCCCCCS(=O)(=O)CCO
inactive: [9] 90 % of control | [10] 88 % of control | [11] 90 % of control

CCCCCCCCCC[N+]1(C)CCC[N+](C)(CCCCCCCCCC)CC1 (centres undefined)
inactive: endpoint: mean survival time, dose: 12.5 mg/kg/injection, schedule: Q01DX001 (ip), vehicle: saline with Tween-80 95 % of control | endpoint: mean survival time, dose: 25.0 mg/kg/injection, schedule: Q01DX001 (ip), vehicle: saline with Tween-80 105 % of control

CSc1nc(NC2OC(CO)C(O)C(O)C2O)c(C(C)=O)c(=O)n1C (centres undefined)
inactive: endpoint: median survival time, dose: 12.5 mg/kg/injection, schedule: Q01DX005 (ip), vehicle: saline with Tween-80 98 % of control | endpoint: median survival time, dose: 25.0 mg/kg/injection, schedule: Q01DX005 (ip), vehicle: saline with Tween-80 98 % of control | endpoint: median survival time, dose: 50.0 mg/kg/injection, schedule: Q01DX005 (ip), vehicle: saline with Tween-80 97 % of control | endpoint: median survival time, dose: 100.0 mg/kg/injection, schedule: Q01DX005 (ip), vehicle: saline with Tween-80 100 % of control | endpoint: median survival time, dose: 200.0 mg/kg/injection, schedule: Q01DX005 (ip), vehicle: saline with Tween-80 88 % of control

COC1OC(C(COC(C)=O)OC(C)=O)C(OC(C)=O)C(OC(C)=O)C1OC(C)=O (centres undefined)
inactive: [8] 95 % of control | endpoint: mean survival time, dose: 200.0 mg/kg/injection, schedule: Q01DX009 (ip), vehicle: saline with Tween-80 102 % of control | endpoint: mean survival time, dose: 400.0 mg/kg/injection, schedule: Q01DX009 (ip), vehicle: saline with Tween-80 104 % of control

N=Cc1ccccc1
inactive: endpoint: mean survival time, dose: 100.0 mg/kg/injection, schedule: Q01DX001 (ip), vehicle: Klucel (hydroxypropylcellulose) (HPC) 99 % of control | endpoint: mean survival time, dose: 200.0 mg/kg/injection, schedule: Q01DX001 (ip), vehicle: Klucel (hydroxypropylcellulose) (HPC) 96 % of control | endpoint: mean survival time, dose: 400.0 mg/kg/injection, schedule: Q01DX001 (ip), vehicle: Klucel (hydroxypropylcellulose) (HPC) 105 % of control

COc1ccc(OC)c(C(=O)C=C(C(F)(F)F)C(F)(F)F)c1
inactive: endpoint: mean survival time, dose: 100.0 mg/kg/injection, schedule: Q01DX009 (ip), vehicle: other 113 % of control

CO[C@@]12[C@@H]3N[C@@H]3CN1C1=C(C(=O)C(Nc3cccc(O)c3)=C(C)C1=O)[C@@H]2COC(N)=O
inactive: endpoint: median survival time, dose: 1.5 mg/kg/injection, schedule: Q01DX001 (ip), vehicle: water 113 % of control | endpoint: median survival time, dose: 3.0 mg/kg/injection, schedule: Q01DX001 (ip), vehicle: water 119 % of control | endpoint: median survival time, dose: 12.0 mg/kg/injection, schedule: Q01DX001 (ip), vehicle: water 122 % of control

C/C(=N/Nc1ccccc1)c1cccs1
inactive: [1] 102 % of control | [2] 102 % of control | [3] 94 % of control

C=CCN(CC=C)/N=N/c1nc[nH]c1C(N)=O
inactive: [9] 98 % of control | [10] 105 % of control | [11] 100 % of control

CCOC1=Cc2c(oc3c(C(C)(C)C)cc(OCC)cc23)OC(C(C)(C)C)=C1
inactive: endpoint: median survival time, dose: 1.56 mg/kg/injection, schedule: Q01DX009 (ip), vehicle: saline with Tween-80 95 % of control and 102 % of control | endpoint: median survival time, dose: 3.12 mg/kg/injection, schedule: Q01DX009 (ip), vehicle: saline with Tween-80 95 % of control and 102 % of control | endpoint: median survival time, dose: 6.25 mg/kg/injection, schedule: Q01DX009 (ip), vehicle: saline with Tween-80 101 % of control and 102 % of control | endpoint: median survival time, dose: 12.5 mg/kg/injection, schedule: Q01DX009 (ip), vehicle: saline with Tween-80 98 % of control and 103 % of control | endpoint: median survival time, dose: 25.0 mg/kg/injection, schedule: Q01DX009 (ip), vehicle: saline with Tween-80 98 % of control and 102 % of control | endpoint: median survival time, dose: 50.0 mg/kg/injection, schedule: Q01DX009 (ip), vehicle: saline with Tween-80 114 % of control and 98 % of control

CC(=O)N(C)N=Nc1ccc([N+](=O)[O-])cc1
inactive: endpoint: mean survival time, dose: 25.0 mg/kg/injection, schedule: Q04DX003 (ip), vehicle: Klucel (hydroxypropylcellulose) (HPC) 103 % of control | endpoint: mean survival time, dose: 50.0 mg/kg/injection, schedule: Q04DX003 (ip), vehicle: Klucel (hydroxypropylcellulose) (HPC) 103 % of control | endpoint: mean survival time, dose: 100.0 mg/kg/injection, schedule: Q04DX003 (ip), vehicle: Klucel (hydroxypropylcellulose) (HPC) 97 % of control | endpoint: mean survival time, dose: 200.0 mg/kg/injection, schedule: Q04DX003 (ip), vehicle: Klucel (hydroxypropylcellulose) (HPC) 114 % of control

N#CSCCN1C(=O)C2C3CCC(O3)C2C1=O (centres undefined)
inactive: [12] 103 % of control

O=C(C[n+]1ccc2ccccc2c1)c1ccc(Br)cc1
inactive: endpoint: mean survival time, dose: 12.5 mg/kg/injection, schedule: Q04DX003 (ip), vehicle: saline 98 % of control | endpoint: mean survival time, dose: 25.0 mg/kg/injection, schedule: Q01DX009 (ip), vehicle: saline 98 % of control | endpoint: mean survival time, dose: 25.0 mg/kg/injection, schedule: Q04DX003 (ip), vehicle: saline 98 % of control | [7] 102 % of control | endpoint: mean survival time, dose: 50.0 mg/kg/injection, schedule: Q04DX003 (ip), vehicle: saline 101 % of control | endpoint: mean survival time, dose: 100.0 mg/kg/injection, schedule: Q04DX003 (ip), vehicle: saline 97 % of control
